Reference: ChEMBL document CHEMBL4622876, “Total Synthesis and Antimalarial Activity of Dominicin, a Cyclic Octapeptide from a Marine Sponge” (J Nat Prod, 2020)
Where a SMILES comes first, the peptide text is derived from it.

What was measured:
Plasmodium falciparum [1] = assay: Antiplasmodial activity against D-sorbitol synchronized ring stage chloroquine/mefloquine/pyrimethamine-resistant Plasmodium falciparum Dd2 after 72 hrs; format: functional, organism-based; conditions: Dd2, 72 h
Erythrocyte = assay: Hemolytic activity in human RBC assessed as release of hemoglobin at 0.78 nM to 26 uM incubated for 72 hrs; format: ADME, cell-based; conditions: 0.00078 µM
Plasmodium falciparum [2] = assay: Antiplasmodial activity against D-sorbitol synchronized ring stage Plasmodium falciparum 3D7 after 72 hrs; format: functional, organism-based; conditions: 3D7, 72 h
Plasmodium falciparum [3] = assay: Antiplasmodial activity against Plasmodium falciparum; format: functional, organism-based

SMILES | IC50 (Plasmodium falciparum [1]) [nM] | Activity (Erythrocyte) | IC50 (Plasmodium falciparum [2]) [µM] | IC50 (Plasmodium falciparum [3]) [nM]
CC[C@H](C)[C@@H]1NC(=O)[C@H]([C@@H](C)CC)NC(=O)[C@H]([C@@H](C)CC)NC(=O)[C@@H]2CCCN2C(=O)[C@H]([C@@H](C)O)NC(=O)[C@@H]2CCCN2C(=O)[C@@H]2CCCN2C(=O)[C@H](CC(C)C)NC1=O (cyclo(IIILPPTP)) | 1800 | Non-Toxic | 3.6 | –
C[C@@H](O)[C@@H]1NC(=O)CNC(=O)[C@H](Cc2ccccc2)NC(=O)[C@H](Cc2ccccc2)NC(=O)CNC(=O)[C@H](Cc2ccccc2)NC(=O)[C@H](Cc2ccccc2)NC1=O (cyclo(FFGFFGT)) | – | – | – | 2200
